Bounds are passed on as bounds.

The term IC50 denotes the midpoint of a concentration-inhibition curve. High values mean weaker potency in that assay, low ones greater potency in that assay.

Format in all cases: functional, cell-based
Test [1] deals with Bel-7402. Put plainly: Cytotoxicity against human Bel7402 cells after 72 hrs by MTT assay. The conditions noted are these: Bel-7402, 72 h.
Test [2] relates to HCT-8. In words: Cytotoxicity against human HCT8 cells after 72 hrs by MTT assay. The settings on record: HCT-8, 72 h. (Tetrazolium dyes change colour on reduction, which living cells bring about.)
Test [3] relates to BGC-823. Put plainly: Cytotoxicity against human BGC823 cells after 72 hrs by MTT assay. The settings on record: BGC-823, 72 h.
The test system of test [4] is A549. In words: Cytotoxicity against human A549 cells after 72 hrs by MTT assay. The conditions noted are these: A549, 72 h.
Test [5] concerns A2780. In words: Cytotoxicity against human A2780 cells after 72 hrs by MTT assay. The settings on record: A2780, 72 h.

As for `CS[C@@]1(CO)C(=O)N2[C@H]3Nc4ccccc4[C@@]3(c3c[nH]c4ccccc34)[C@H](O)[C@]2(SC)C(=O)N1C` [T988 B], the IC50 in test [1], in test [2], in test [3], in test [4] and in test [5] was greater than 10000 nM in each case.
For `CN1C(=O)[C@]23SSS[C@@]1(CO)C(=O)N2[C@H]1Nc2ccccc2C1([C@@]12c4ccccc4N[C@@H]1N1C(=O)[C@]4(CO)SSS[C@]1(C(=O)N4C)[C@H]2O)[C@@H]3O` (stereo partly drawn) [CHETRACIN C], the IC50 in test [1] was 380 nM; in test [2], 490 nM; in test [3], 700 nM; in test [4] it was 720 nM; in test [5], 580 nM.
Taken in the same sequence, the figures for `CS[C@@]1(CO)C(=O)N2[C@H]3Nc4ccccc4C3([C@@]34c5ccccc5N[C@@H]3N3C(=O)[C@](CO)(SC)N(C)C(=O)[C@@]3(SC)[C@H]4O)[C@H](O)[C@]2(SC)C(=O)N1C` (stereo partly drawn) [CHETRACIN D] were 810 nM, 1060 nM, 1830 nM, 140 nM and 1650 nM.
Take `CN1C(=O)[C@]23SS[C@@]1(CO)C(=O)N2[C@H]1Nc2ccccc2C1([C@@]12c4ccccc4N[C@@H]1N1C(=O)[C@]4(CO)SS[C@]1(C(=O)N4C)[C@H]2O)[C@@H]3O` (stereo partly drawn) [MELINACIDIN IV]: the IC50 was 5 nM in test [1]; 52 nM in test [2]; 47 nM in test [3]; 22 nM in test [4]; 54 nM in test [5].
For the compound `CON1C(=O)C(CO)NC(=O)C1(O)Cc1c[nH]c2ccccc12` (stereo not drawn) [OIDIOPERAZINE B], the IC50 in test [1], in test [2], in test [3], in test [4] and in test [5] was greater than 10000 nM throughout.
Regarding `CS[C@@]1(CO)C(=O)N2[C@H]3N(C=O)c4ccccc4[C@@]3(c3c[nH]c4ccccc34)[C@H](O)[C@]2(SC)C(=O)N1C` [OIDIOPERAZINE A], the half-maximal inhibitory concentration (IC50) in test [1], in test [2], in test [3], in test [4] and in test [5] was greater than 10000 nM each time.
For the compound `CN1C(=O)[C@]23SS[C@@]1(CO)C(=O)N2[C@H]1Nc2ccccc2C1([C@@]12c4ccccc4N[C@@H]1N1C(=O)[C@]4(CO)SSS[C@]1(C(=O)N4C)[C@H]2O)[C@@H]3O` (stereo partly drawn) [CHETRACIN B], the IC50 in test [1] was found to be 3 nM; in test [2] it was 13 nM; in test [3], 11 nM; in test [4], 22 nM; in test [5], 28 nM.
For the compound `C=C1NC(=O)C(Cc2c[nH]c3ccccc23)(OC)N(OC)C1=O` (stereo not drawn) [OIDIOPERAZINE D], the IC50 in test [1], in test [2], in test [3], in test [4] and in test [5] was greater than 10000 nM each time.
With `CS[C@]1(CO)NC(=O)[C@](Cc2c[nH]c3ccccc23)(SC)NC1=O` [CHETOSEMINUDIN C], the half-inhibitory concentration (IC50) in test [1], in test [2], in test [3], in test [4] and in test [5] was greater than 10000 nM throughout.
Turning to `COC1(CO)NC(=O)/C(=C/c2c[nH]c3ccccc23)NC1=O` (stereo not drawn) [OIDIOPERAZINE C], the IC50 in test [1], in test [2], in test [3], in test [4] and in test [5] was greater than 10000 nM in each case.
For the compound `CN1C(=O)[C@]23SSS[C@]1(CO)C(=O)N2[C@H]1Nc2ccccc2[C@@]1(c1c[nH]c2ccccc12)[C@@H]3O`, the IC50 in test [1] turned out to be 750 nM; in test [2] it was 1180 nM; in test [3] it was 1460 nM; in test [4], 1530 nM; in test [5], 420 nM.
On to `CC(=O)O[C@H]1C(=O)[C@@]2(C)[C@H]([C@H](OC(=O)c3ccccc3)[C@]3(O)C[C@H](OC(=O)[C@H](O)[C@@H](NC(=O)c4ccccc4)c4ccccc4)C(C)=C1C3(C)C)[C@]1(OC(C)=O)CO[C@@H]1C[C@@H]2O` [PACLITAXEL], for which the IC50 in test [1] is 6 nM; in test [3] it was less than 1 nM; in test [5] it was less than 1 nM.
On to `O=C1N[C@@H](Cc2c[nH]c3ccccc23)C(=O)N[C@H]1CO`, for which the IC50 in test [1], in test [2], in test [3], in test [4] and in test [5] was greater than 10000 nM throughout.
For `CN1C(=O)[C@]23SS[C@]1(CO)C(=O)N2[C@H]1Nc2ccccc2[C@@]1(c1c[nH]c2ccccc12)[C@@H]3O` [T988 C], the IC50 in test [1] came to 550 nM; in test [2], 700 nM; in test [3], 670 nM; in test [4], 1240 nM; in test [5], 480 nM.

(Values after ChEMBL document CHEMBL2046435, “Cytotoxic metabolites from the antarctic psychrophilic fungus Oidiodendron truncatum” (J Nat Prod, 2012).)
